Test systems include CCRF-CEM leukemia; SR leukemia; SF-268 CNS; TK-10 renal; UO-31 renal; SK-OV-3 ovarian; HCT-15 colon; SNB-75 CNS.
Assay in all cases: NCI tumour cell line growth inhibition, 48 h

Values joined by “and” are separate entries in the source; they are usually repeats but may differ in a detail not shown here. Identical values can stand only once.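 Cultured in 96-well plates, cells were exposed to test compound for 48 hours across five concentrations. GI50 = concentration required for 50% inhibition of growth. TGI is the concentration that stops growth completely.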 Some results are limits rather than exact numbers.

We go through 14 compounds from PubChem BioAssay (NCI).

`CN(/N=C/c1ccccc1O)c1ccc2ccccc2n1`: the TGI was over 100 µM with CCRF-CEM leukemia; 36.8 µM with SR leukemia; 53.8 µM in the assay on SF-268 CNS; 44 µM in the assay on TK-10 renal; 35.2 µM in the assay on UO-31 renal; 29.8 µM with SK-OV-3 ovarian. The compound further gave a TGI in the assay with HCT-15 colon of over 100 µM.
With `O=C(Nc1n[nH]c2nc(-c3ccc(O)cc3)c(Br)cc12)C1CC1`, the GI50 with CCRF-CEM leukemia is 1.82 µM; in the assay on SR leukemia, 1.53 µM; in the assay with SF-268 CNS, 4.74 µM; with TK-10 renal, 7.29 µM; in the assay on UO-31 renal, 3.93 µM; with SK-OV-3 ovarian it was 2.67 µM. Further, the GI50 is 6.21 µM with SNB-75 CNS and 3.77 µM in the assay with HCT-15 colon. For the same compound, the TGI was over 25 µM in the assay with CCRF-CEM leukemia; over 15.4 µM in the assay with SR leukemia; 16.5 µM in the assay with SF-268 CNS; 17.4 µM in the assay on TK-10 renal; 15.3 µM in the assay on UO-31 renal; 11.8 µM in the assay on SK-OV-3 ovarian. The TGI was 12.5 µM with SNB-75 CNS and over 23.2 µM in the assay with HCT-15 colon.
For `C#Cc1cccc(NC(=O)c2cccc(NC(=O)CCl)c2)c1`, the GI50 is 7.29 µM in the assay on CCRF-CEM leukemia; 4.79 µM in the assay with SR leukemia; 23 µM in the assay on SF-268 CNS; 25.9 µM with TK-10 renal; 12 µM in the assay with UO-31 renal; 56.4 µM in the assay with SK-OV-3 ovarian. For the same compound, the GI50 was 12.3 µM in the assay with SNB-75 CNS and 5.2 µM in the assay on HCT-15 colon. The TGI in the assay with CCRF-CEM leukemia is 54.5 µM; in the assay with SR leukemia it was 43.1 µM; in the assay on SF-268 CNS it was over 82.5 µM; with TK-10 renal, over 82.5 µM; in the assay with UO-31 renal, 22.9 µM; with SK-OV-3 ovarian, over 82.5 µM. Besides, the TGI with SNB-75 CNS stood at 75.5 µM; with HCT-15 colon it was 19.1 µM.
Consider `COC(=O)C1=C(C(=O)ON)[C@@H]2C=C[C@@]1([C@@H](Cc1ccccc1)Nc1ccccc1)O2`, for which the GI50 in the assay with CCRF-CEM leukemia was 2.43 µM; in the assay with SR leukemia, 2.02 µM; in the assay with SF-268 CNS it was 14 µM; in the assay with TK-10 renal it was 1.7 µM; in the assay on UO-31 renal, 1.51 µM; in the assay on SK-OV-3 ovarian, 15.6 µM. In addition, the figures for the GI50 in the assay on SNB-75 CNS and with HCT-15 colon were 12.4 µM and 1.76 µM, respectively. In addition, the TGI in the assay with CCRF-CEM leukemia was 8.2 µM; in the assay on SR leukemia, 10.4 µM; with SF-268 CNS, 28.5 µM; in the assay on TK-10 renal, 3.08 µM; in the assay with UO-31 renal it was 2.84 µM; with SK-OV-3 ovarian, 29.2 µM. Also, the TGI is 24.9 µM in the assay with SNB-75 CNS and 4.1 µM with HCT-15 colon.
On to `CC[C@H]1CCC/C=C/[C@@H]2C[C@H](O)C[C@H]2[C@H](O)/C=C/C(=O)O1`, for which the GI50 was 0.0455 µM in the assay on CCRF-CEM leukemia; 0.0292 µM with SR leukemia; 0.0403 µM with SF-268 CNS; 0.0355 µM with TK-10 renal; 0.0267 µM in the assay on UO-31 renal; 0.0476 µM in the assay with SK-OV-3 ovarian. Besides, the GI50 with SNB-75 CNS was under 0.0119 µM; with HCT-15 colon, 0.0446 µM. Further, the TGI in the assay on CCRF-CEM leukemia was over 100 µM; in the assay with SR leukemia, 0.115 µM; in the assay with SF-268 CNS, over 100 µM; in the assay with TK-10 renal it was 0.568 µM; in the assay on UO-31 renal, over 37.2 µM; in the assay on SNB-75 CNS, over 100 µM.
Take `COc1ccc(CNCCCN2C(=O)c3ccc4c5c(ccc(c35)C2=O)C(=O)N(CCCNCc2ccc(OC)c(OC)c2OC)C4=O)c(OC)c1OC`: the GI50 is 0.137 µM with CCRF-CEM leukemia; 0.165 µM in the assay on SR leukemia; 0.117 µM in the assay with SF-268 CNS; 0.0981 µM in the assay on TK-10 renal; 0.585 µM in the assay on UO-31 renal; 0.264 µM with SK-OV-3 ovarian. The GI50 is 0.139 µM in the assay with SNB-75 CNS and 0.244 µM in the assay on HCT-15 colon. For the same compound, the TGI in the assay with CCRF-CEM leukemia was found to be 2.04 µM; in the assay on SR leukemia it was 0.644 µM; with SF-268 CNS, 0.353 µM; with TK-10 renal it was 0.269 µM; with UO-31 renal, 1.22 µM; in the assay on SK-OV-3 ovarian, 0.848 µM. The TGI was 0.442 µM with SNB-75 CNS and 0.952 µM in the assay on HCT-15 colon.
With `COc1ccc(-c2cc(-c3ccc(OC)cc3)nc(NCCCNc3ccnc4cc(Cl)ccc34)n2)cc1`, the GI50 in the assay on CCRF-CEM leukemia was 2.26 µM; in the assay with SR leukemia, 1.43 µM; in the assay on SF-268 CNS it was 1.65 µM; in the assay with TK-10 renal it was 1.97 µM; with UO-31 renal it was 1.32 µM; in the assay with SK-OV-3 ovarian, 1.71 µM. The values for the GI50 with SNB-75 CNS and in the assay with HCT-15 colon were 11.8 µM and 1.68 µM, respectively. The TGI in the assay on CCRF-CEM leukemia came to 6.98 µM; in the assay with SR leukemia it was 5.86 µM; in the assay with SF-268 CNS it was 3.3 µM; with TK-10 renal it was 3.56 µM; in the assay with UO-31 renal it was 2.6 µM; in the assay with SK-OV-3 ovarian, 3.14 µM. Also, the TGI in the assay with SNB-75 CNS stood at 24.5 µM; in the assay on HCT-15 colon, 3.45 µM.
On to `CCOC(=O)c1c2c(n3ccc(NC(=O)CCN4CCCCC4)cc13)C(=O)c1ncccc1C2=O`, for which the GI50 was 1.18 µM with CCRF-CEM leukemia; under 0.01 µM in the assay on SR leukemia; 0.0503 µM with SF-268 CNS; 0.171 µM with TK-10 renal; 0.0315 µM in the assay with UO-31 renal; 0.0953 µM in the assay on SK-OV-3 ovarian. Besides, the results for the GI50 with SNB-75 CNS and in the assay on HCT-15 colon were 0.506 µM and 1.13 µM, respectively. Besides, the TGI was 3.68 µM in the assay with CCRF-CEM leukemia; 1.2 µM in the assay on SR leukemia; 2.25 µM in the assay on SF-268 CNS; 2.25 µM in the assay with TK-10 renal; 1.46 µM in the assay on UO-31 renal; 18.7 µM in the assay on SK-OV-3 ovarian. Moreover, the TGI was determined as 5.98 µM with SNB-75 CNS and 2.86 µM in the assay on HCT-15 colon.
For the compound `CN[C@@H](Cc1cccc2ccccc12)C(=O)N[C@@H](CC(C)C)B(O)O`, the TGI was 0.0354 µM with CCRF-CEM leukemia; 0.281 µM with SR leukemia; 0.0353 µM with SF-268 CNS; 0.0821 µM in the assay on TK-10 renal; 0.059 µM and < 0.0131 µM in the assay on UO-31 renal; over 100 µM in the assay on SK-OV-3 ovarian. Moreover, the TGI is 0.0617 µM with SNB-75 CNS; 0.0459 µM and 0.406 µM in the assay with HCT-15 colon. Besides, the GI50 in the assay on SR leukemia was 0.0163 µM; with SF-268 CNS it was 0.0154 µM; with TK-10 renal, 0.0256 µM; in the assay on UO-31 renal, 0.0179 µM; in the assay on SK-OV-3 ovarian, 0.0944 µM; in the assay on SNB-75 CNS, 0.0227 µM. For the same compound, the GI50 with HCT-15 colon is 0.0172 µM.
On to `COc1ccc(C2=NN(C(C)=O)C(c3ccc(Oc4ccnc5cc(Cl)ccc45)c(OC)c3)C2)cc1` (stereo unspecified), for which the GI50 in the assay on CCRF-CEM leukemia was over 100 µM; in the assay with SR leukemia, over 100 µM; with SF-268 CNS, 9.28 µM; in the assay with UO-31 renal, over 100 µM; in the assay with SK-OV-3 ovarian, 6.01 µM; with SNB-75 CNS, 1.66 µM. In addition, the GI50 in the assay on HCT-15 colon was over 100 µM. The TGI is over 100 µM in the assay with CCRF-CEM leukemia; over 100 µM in the assay on SR leukemia; over 100 µM in the assay with SF-268 CNS; over 100 µM with UO-31 renal; 42.9 µM in the assay on SK-OV-3 ovarian; 6.16 µM with SNB-75 CNS. The compound further came in with a TGI with HCT-15 colon of over 100 µM.
`C#CCOC(=O)/C=C/C(=O)Oc1ccc2c(C)cc(=O)oc2c1`: the GI50 with CCRF-CEM leukemia, in the assay with SR leukemia, with SF-268 CNS, in the assay on TK-10 renal, with UO-31 renal and in the assay with SK-OV-3 ovarian was over 100 µM in each case. Moreover, the GI50 in the assay on SNB-75 CNS and with HCT-15 colon was over 100 µM each time. In addition, the TGI in the assay on CCRF-CEM leukemia, with SR leukemia, in the assay with SF-268 CNS, with TK-10 renal, in the assay with UO-31 renal and with SK-OV-3 ovarian was over 100 µM in each case. The TGI in the assay on SNB-75 CNS and in the assay with HCT-15 colon was over 100 µM in each case.
Regarding `FC(F)(F)c1cc(NC(=S)N2c3ccccc3-n3cccc3C2c2cccnc2)cc(C(F)(F)F)c1` (stereo unspecified), the GI50 in the assay with CCRF-CEM leukemia is 4.1 µM; with SR leukemia, 4.64 µM; with SF-268 CNS it was 9.91 µM; in the assay on TK-10 renal it was 2.9 µM; in the assay on UO-31 renal it was 19.9 µM; in the assay on SK-OV-3 ovarian, 11.9 µM. The GI50 in the assay on SNB-75 CNS is 7.07 µM; with HCT-15 colon, 4.76 µM. The TGI with CCRF-CEM leukemia was 33.7 µM; with SR leukemia, 22.7 µM; with SF-268 CNS, 28.5 µM; in the assay on TK-10 renal, 9.39 µM; in the assay with UO-31 renal, 36.9 µM; in the assay with SK-OV-3 ovarian, 27.5 µM. The TGI in the assay on SNB-75 CNS worked out at 22.7 µM; in the assay with HCT-15 colon, 27.7 µM.
In the case of `O=[N+]([O-])c1ccc(N=Nc2c(Cl)cc(O)cc2Cl)cc1`, the GI50 with CCRF-CEM leukemia was 0.571 µM; in the assay with SR leukemia, 0.421 µM; in the assay with SF-268 CNS it was 1.18 µM; in the assay on TK-10 renal, 4.34 µM; in the assay with SK-OV-3 ovarian, 2.1 µM; with SNB-75 CNS, over 100 µM. Besides, the GI50 in the assay on HCT-15 colon is 2.02 µM. In addition, the TGI is 7.25 µM in the assay with CCRF-CEM leukemia; 6.09 µM with SR leukemia; 7.73 µM in the assay on SF-268 CNS; 25.8 µM in the assay on TK-10 renal; 10.3 µM in the assay with SK-OV-3 ovarian; over 100 µM in the assay on SNB-75 CNS. Further, the TGI in the assay with HCT-15 colon worked out at 10.3 µM.
Consider `COc1cc2c(c(OC)c1OC)-c1c(c3ccc([N+](=O)[O-])cc3c(=O)n1CCCBr)C2=O`, for which the GI50 in the assay on CCRF-CEM leukemia was 14.8 µM; in the assay on SR leukemia, 4.37 µM; in the assay on SF-268 CNS it was 4.83 µM; in the assay on TK-10 renal, 23.5 µM; in the assay on UO-31 renal it was 14.4 µM; with SK-OV-3 ovarian, over 100 µM. Moreover, in the assay on SNB-75 CNS, the GI50 was 80 µM. Besides, the TGI was over 100 µM in the assay on CCRF-CEM leukemia; over 100 µM in the assay on SR leukemia; 45.8 µM in the assay on SF-268 CNS; 90.2 µM with TK-10 renal; 72.5 µM with UO-31 renal; over 100 µM in the assay on SK-OV-3 ovarian. This compound also returned a TGI with SNB-75 CNS of over 100 µM.
